The values that follow are results of earlier work, collected in patent US20080279765A1, “Novel Imaging Agents for Fibrosis” (priority 2005, published 2008).

Where two headings read alike, the source gives them in different places.

Data set [1] deals with T1, M6P receptor (Homo sapiens, UniProt P11717). As to conditions: site on M6P receptor distinct from the IGF-II binding site.
For data set [2], the target named is T1, M6P receptor. As to conditions: pH 7.4; read-out: Kd of binding to the M6P receptor.

T1 sequence (P11717 41-2491): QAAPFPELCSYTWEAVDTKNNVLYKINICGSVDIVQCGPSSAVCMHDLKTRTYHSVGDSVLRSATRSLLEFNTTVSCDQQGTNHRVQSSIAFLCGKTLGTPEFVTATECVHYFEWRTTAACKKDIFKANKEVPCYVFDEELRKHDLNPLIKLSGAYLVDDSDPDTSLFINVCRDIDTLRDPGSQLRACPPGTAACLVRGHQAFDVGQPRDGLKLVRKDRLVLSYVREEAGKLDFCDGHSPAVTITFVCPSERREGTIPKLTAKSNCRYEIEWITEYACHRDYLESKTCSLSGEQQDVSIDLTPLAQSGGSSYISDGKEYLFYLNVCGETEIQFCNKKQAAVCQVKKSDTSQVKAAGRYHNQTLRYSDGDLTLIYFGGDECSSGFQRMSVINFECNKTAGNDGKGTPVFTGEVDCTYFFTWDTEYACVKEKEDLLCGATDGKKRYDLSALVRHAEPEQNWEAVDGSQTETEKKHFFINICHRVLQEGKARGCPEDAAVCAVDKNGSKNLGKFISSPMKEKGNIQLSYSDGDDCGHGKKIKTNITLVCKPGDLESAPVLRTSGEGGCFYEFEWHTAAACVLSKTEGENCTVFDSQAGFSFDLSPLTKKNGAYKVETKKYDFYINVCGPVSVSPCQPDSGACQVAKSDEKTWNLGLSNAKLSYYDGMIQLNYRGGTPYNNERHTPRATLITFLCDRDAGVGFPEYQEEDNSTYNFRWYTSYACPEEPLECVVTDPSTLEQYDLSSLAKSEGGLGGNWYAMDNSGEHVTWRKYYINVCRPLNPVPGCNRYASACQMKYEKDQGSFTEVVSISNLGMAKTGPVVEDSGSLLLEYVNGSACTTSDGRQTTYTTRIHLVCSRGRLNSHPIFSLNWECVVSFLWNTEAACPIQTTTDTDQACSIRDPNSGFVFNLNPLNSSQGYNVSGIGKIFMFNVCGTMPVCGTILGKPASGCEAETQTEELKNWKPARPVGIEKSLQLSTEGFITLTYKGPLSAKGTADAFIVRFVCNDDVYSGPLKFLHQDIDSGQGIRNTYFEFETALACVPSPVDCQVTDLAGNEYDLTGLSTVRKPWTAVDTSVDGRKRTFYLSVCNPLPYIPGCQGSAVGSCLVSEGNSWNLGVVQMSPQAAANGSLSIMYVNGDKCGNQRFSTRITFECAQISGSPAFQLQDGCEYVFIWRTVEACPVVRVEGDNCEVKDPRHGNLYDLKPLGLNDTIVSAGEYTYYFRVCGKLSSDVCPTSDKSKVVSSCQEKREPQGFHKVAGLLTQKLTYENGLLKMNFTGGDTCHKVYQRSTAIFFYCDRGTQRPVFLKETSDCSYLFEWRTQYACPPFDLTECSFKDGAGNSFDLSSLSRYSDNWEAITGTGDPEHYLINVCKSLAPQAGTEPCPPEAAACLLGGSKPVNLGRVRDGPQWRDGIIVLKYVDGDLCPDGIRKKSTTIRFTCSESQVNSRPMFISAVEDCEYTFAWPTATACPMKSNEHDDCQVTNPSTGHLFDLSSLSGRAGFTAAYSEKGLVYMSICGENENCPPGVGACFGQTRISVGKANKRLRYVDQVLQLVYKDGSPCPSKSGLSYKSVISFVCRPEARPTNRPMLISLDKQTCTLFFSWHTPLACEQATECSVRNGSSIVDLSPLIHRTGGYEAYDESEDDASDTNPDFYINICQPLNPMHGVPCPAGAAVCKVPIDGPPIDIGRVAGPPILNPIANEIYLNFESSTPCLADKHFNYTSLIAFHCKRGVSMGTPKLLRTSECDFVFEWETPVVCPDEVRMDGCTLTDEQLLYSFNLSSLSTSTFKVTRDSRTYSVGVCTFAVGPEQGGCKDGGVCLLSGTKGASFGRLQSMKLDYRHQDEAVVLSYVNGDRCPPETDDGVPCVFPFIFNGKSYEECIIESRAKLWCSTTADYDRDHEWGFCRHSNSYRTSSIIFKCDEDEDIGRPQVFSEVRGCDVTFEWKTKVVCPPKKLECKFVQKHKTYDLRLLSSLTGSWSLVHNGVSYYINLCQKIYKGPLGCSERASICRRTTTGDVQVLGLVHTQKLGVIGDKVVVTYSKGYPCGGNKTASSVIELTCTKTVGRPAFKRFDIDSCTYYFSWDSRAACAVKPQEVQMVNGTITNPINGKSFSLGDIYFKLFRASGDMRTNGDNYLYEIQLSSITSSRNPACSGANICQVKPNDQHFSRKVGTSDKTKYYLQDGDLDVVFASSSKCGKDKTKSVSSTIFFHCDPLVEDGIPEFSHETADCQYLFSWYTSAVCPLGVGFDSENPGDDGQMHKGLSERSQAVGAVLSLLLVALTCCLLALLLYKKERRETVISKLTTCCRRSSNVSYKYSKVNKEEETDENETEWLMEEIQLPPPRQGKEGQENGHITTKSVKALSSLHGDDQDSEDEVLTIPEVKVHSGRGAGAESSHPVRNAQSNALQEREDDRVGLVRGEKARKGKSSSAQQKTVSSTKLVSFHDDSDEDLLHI

The term Kd denotes the constant that tells how readily two partners part at equilibrium. retinoic acid: at M6P receptor [1], the Kd was 2.4 nM.
In the case of “IGF-II: non-glycosylated single chain of 67 amino acid residues, SEQ ID NO. 1”, the Kd with M6P receptor [2] is 0.3 to 14 nM.
